Experimental data taken from patent US8399495B2, “Talarazole metabolites” (Stiefel Laboratories, Inc., priority 2006, dated 2013).

What was measured:
[1] = system: IP-10; test: Suppression of IP-10 production by IFNγ-activated human epidermal keratinocytes; type: cell-based
Text: Talarozole Metabolites for Suppression of IP-10 Production by IFNγ-Activated Human Epidermal Keratinocytes
IP-10, a member of the CXC subfamily of chemokines, attracts T-lymphocytes and natural killer cells. […] In particular, epidermal keratinocytes of psoriatic lesions express elevated levels of IP-10. Suppression of IP-10 expression by activated keratinocytes may represent a novel target for therapeutic intervention of inflammatory skin disorders.

[2] = Pharmacokinetics of radioactivity in plasma after oral 14C-labeled talarozole, mouse; type: in vivo; conditions: single oral 5 mg/kg; for AUC0-t: 0-48 h
Text: (§1) Mouse, rat, dog and human were the species used for the safety evaluations of talarozole. More specifically, the disposition of ^14C-labeled talarozole was examined in mice, rats, dogs and humans after oral administration to provide information regarding the absorption, metabolism and excretion of talarozole.
Male and female CD-1 mice (19-29 g, n=3/sex/timepoint for blood sampling, n=3/sex for mass balance), Sprague Dawley rats (0.205-0.237 kg, n=3/sex/timepoint for blood sampling, n=3/sex for mass balance) and beagle dogs (7-12 kg, n=3) were given a single oral dose of ^14C-labeled talarozole in 20% hydroxyl propyl B-cyclodextrin at 5 mg/kg. Healthy human male volunteers (76.6-107.9 kg, n=5) were dosed with a single oral dose of 4 mg ^14C-labeled rambazole in ethanol. Blood samples were collected at selected timepoints after dosing and plasma was prepared. Urine and feces were collected for 2, 7 and 8 days. For the human study, up to 288 hours post-dose and semen samples were obtained 2 and 4 hours post-dose. Radioactivity in various matrices were measured by liquid scintillation counting (LSC). Select plasma, urine and fecal samples were subjected to metabolite radioprofiling and characterization, and in the human study, semen samples. Metabolite radioprofiling was accomplished using HPLC with fraction collection followed by solid scintillation counting (Packard TopCount—see representative HPLC run data below). Radioactivity peaks were integrated and the percent distribution of individual metabolites in each sample was determined. […] For all species, plasma, urine and fecal samples were pooled across animals and analyzed. Plasma was analyzed at several time-points out to 24 hours. Urine was analyzed over one time-interval (0-24 hours for mouse, 0-48 hours for rat, 0-72 hours for dog, and for in the human study, 0-12, 12-24, 24-48, 0-48 hours. Feces was analyzed over 2-3 time intervals (0-24 and 24-48 hours for mouse and rat; 0-24, 24-48, and 48-72 hours for male dogs; and 24-48, 48-72, and 72-96 hours for female dogs). In the human study, feces were analyzed for 0-48, 48-96, 96-144, 144-192, 192-288, 0-144, 144-288 and 0-288 hours. PK parameters for ^14C-labeled talarozole radioactivity was determined from the mean (mouse and rat) or individual (dog and human) plasma concentration versus time data. PK parameter values were determined by non-compartmental methods using WinNonlin™. • HPLC data for separations described in Example 1: • LC system: Waters 2695 Separations Module • Analytic column: C18 column, 4.6×150 mm, 3 μm • Flow rate: 1.0 mL/min • Mobile phase A: 2% HCOOH in H2O (pH 3.2) • Mobile phase B: CH3CN • Gradient: […]

[3] = Pharmacokinetics of radioactivity in plasma after oral 14C-labeled talarozole, human; type: in vivo; conditions: male, single oral 4 mg
Text: as §1
Male and female CD-1 mice (19-29 g, n=3/sex/timepoint for blood sampling, n=3/sex for mass balance), Sprague Dawley rats (0.205-0.237 kg, n=3/sex/timepoint for blood sampling, n=3/sex for mass balance) and beagle dogs (7-12 kg, n=3) were given a single oral dose of ^14C-labeled talarozole in 20% hydroxyl propyl B-cyclodextrin at 5 mg/kg. […] Radioactivity in various matrices were measured by liquid scintillation counting (LSC). […] Radioactivity peaks were integrated and the percent distribution of individual metabolites in each sample was determined. […] For all species, plasma, urine and fecal samples were pooled across animals and analyzed. Plasma was analyzed at several time-points out to 24 hours. […] PK parameter values were determined by non-compartmental methods using WinNonlin™. • HPLC data for separations described in Example 1: • LC system: Waters 2695 Separations Module • Analytic column: C18 column, 4.6×150 mm, 3 μm • Flow rate: 1.0 mL/min • Mobile phase A: 2% HCOOH in H2O (pH 3.2) • Mobile phase B: CH3CN • Gradient: […]

[4] = Metabolite radioprofiling of plasma, urine and feces, rat; type: in vivo; conditions: for Feces % Dose as the component / Plasma 0-24 h AUC (% Sample) / Plasma 0-24 h AUC of the radioactive component / Urine % Dose as the component: rat (5 mg/kg) oral 14C-talarozole; for Urine % Dose as the component: urine 0-48 h; for Plasma 0-24 h AUC, total radioactivity: rat (5 mg/kg)
Protocol: Male and female CD-1 mice (19-29 g, n=3/sex/timepoint for blood sampling, n=3/sex for mass balance), Sprague Dawley rats (0.205-0.237 kg, n=3/sex/timepoint for blood sampling, n=3/sex for mass balance) and beagle dogs (7-12 kg, n=3) were given a single oral dose of ^14C-labeled talarozole in 20% hydroxyl propyl B-cyclodextrin at 5 mg/kg. Healthy human male volunteers (76.6-107.9 kg, n=5) were dosed with a single oral dose of 4 mg ^14C-labeled rambazole in ethanol. Blood samples were collected at selected timepoints after dosing and plasma was prepared. Urine and feces were collected for 2, 7 and 8 days. For the human study, up to 288 hours post-dose and semen samples were obtained 2 and 4 hours post-dose. Radioactivity in various matrices were measured by liquid scintillation counting (LSC). Select plasma, urine and fecal samples were subjected to metabolite radioprofiling and characterization, and in the human study, semen samples. Metabolite radioprofiling was accomplished using HPLC with fraction collection followed by solid scintillation counting (Packard TopCount—see representative HPLC run data below). Radioactivity peaks were integrated and the percent distribution of individual metabolites in each sample was determined. Metabolite characterization and identification were accomplished by LC/MS (Finnigan MAT LCQ in positive or negative ESI mode) in conjunction with an appropriate radioactive monitor (RAM). For all species, plasma, urine and fecal samples were pooled across animals and analyzed. Plasma was analyzed at several time-points out to 24 hours. Urine was analyzed over one time-interval (0-24 hours for mouse, 0-48 hours for rat, 0-72 hours for dog, and for in the human study, 0-12, 12-24, 24-48, 0-48 hours. Feces was analyzed over 2-3 time intervals (0-24 and 24-48 hours for mouse and rat; 0-24, 24-48, and 48-72 hours for male dogs; and 24-48, 48-72, and 72-96 hours for female dogs). In the human study, feces were analyzed for 0-48, 48-96, 96-144, 144-192, 192-288, 0-144, 144-288 and 0-288 hours. PK parameters for ^14C-labeled talarozole radioactivity was determined from the mean (mouse and rat) or individual (dog and human) plasma concentration versus time data. PK parameter values were determined by non-compartmental methods using WinNonlin™. • HPLC data for separations described in Example 1: • LC system: Waters 2695 Separations Module • Analytic column: C18 column, 4.6×150 mm, 3 μm • Flow rate: 1.0 mL/min • Mobile phase A: 2% HCOOH in H2O (pH 3.2) • Mobile phase B: CH3CN • Gradient: […]

Compound: CCC(CC)[C@H](c1ccc(Nc2nc3ccccc3s2)cc1)n1cncn1 [Talarozole, (R)—N-[4-[2-ethyl-1-(1H-1,2,4-triazole-1-yl)butyl]phenyl]-2-benzothiazolamine]
- IP-10 expression [1]: down regulate dose-dependently
- AUC0-∞ ([2]; female): 6767 hr-ng equiv/g
- AUC0-t ([2]; female): 6632 hr-ng equiv/g
- AUC0-∞ ([2]; male): 10276 hr-ng equiv/g
- AUC0-t ([2]; male): 10215 hr-ng equiv/g
- AUC0-∞ [3]: 301 hr-ng equiv/g
- AUC0-t ([3]; 0-48 h): 269 hr-ng equiv/g
- Feces % Dose as the component ([4]; female): 4.60 % Dose
- Plasma 0-24 h AUC (% Sample) ([4]; female): 39.17%
- Plasma 0-24 h AUC of the radioactive component ([4]; female): 3523.2 ng·h/g
- Urine % Dose as the component ([4]; female): 1.90 % Dose
- Feces % Dose as the component ([4]; male): 5.34 % Dose
- Plasma 0-24 h AUC (% Sample) ([4]; male): 11.05%
- Plasma 0-24 h AUC of the radioactive component ([4]; male): 778.38 ng·h/g
- Urine % Dose as the component ([4]; male): 0.10 % Dose
- Plasma 0-24 h AUC, total radioactivity ([4]; female): 8995.6 ng*hr/g F
- Plasma 0-24 h AUC, total radioactivity ([4]; male): 7045.6 ng·h/g/M
